Test results: US7381705B2, “Inhibitors of hepatitis C virus” (The Administrators Of The Tulane Educational Fund, priority 2004, dated 2008)
Read-outs that look alike come from different tables or passages of the source. Peptide text beside a SMILES is read from it.

Test system: HCV pseudotype (HIV core proteins, HCV E1 and E2 of strain H77)
Conditions: for Percent inhibition: 25 μM
[1] = HCV H77 1a E2 peptides at ~25 μM, Table 7, virus alone 448,123
[2] = HCV J4 1b E2 peptides at ~25 μM, Table 8, controls as in Table 7

CC[C@H](C)[C@H](NC(=O)CNC(=O)[C@H](CS)NC(=O)[C@@H]1CCCN1C(=O)[C@H](CCCNC(=N)N)NC(=O)[C@@H]1CCCN1C(=O)[C@@H]1CCCN1C(=O)[C@H](Cc1ccc(O)cc1)NC(=O)[C@H](Cc1c[nH]cn1)NC(=O)[C@H](Cc1c[nH]c2ccccc12)NC(=O)[C@H](CS)NC(=O)[C@H](Cc1ccc(O)cc1)NC(=O)[C@@H]1CCCN1)C(=O)N[C@H](C(=O)N1CCC[C@H]1C(=O)N[C@@H](C)C(=O)N[C@@H](CCCCN)C(=O)N[C@@H](CO)C(=O)O)C(C)C [compound 15, PYCWHYPPRPCGIVPAKS] (H-PYCWHYPPRPCGIVPAKS-OH; N-terminus and C-terminus assumed)
Percent inhibition: 43.5% | Luciferase units [1]: 253,410 luciferase units (lumens)

CC[C@H](C)[C@H](NC(=O)CNC(=O)[C@H](CS)NC(=O)[C@@H]1CCCN1C(=O)[C@H](CCCNC(=N)N)NC(=O)[C@@H]1CCCN1)C(=O)N[C@H](C(=O)N1CCC[C@H]1C(=O)N[C@@H](C)C(=O)N[C@@H](CCCCN)C(=O)N[C@@H](CO)C(=O)N[C@H](C(=O)N[C@@H](CS)C(=O)NCC(=O)N1CCC[C@H]1C(=O)N[C@H](C(=O)N[C@@H](Cc1ccc(O)cc1)C(=O)N[C@@H](CS)C(=O)O)C(C)C)C(C)C)C(C)C [compound 16, PRPCGIVPAKSVCGPVYC] (H-PRPCGIVPAKSVCGPVYC-OH; N-terminus and C-terminus assumed)
Percent inhibition: 10.0% | Luciferase units [1]: 403,430 luciferase units (lumens)

CC(C)[C@H](NC(=O)[C@@H](NC(=O)[C@@H]1CCCN1C(=O)[C@H](CO)NC(=O)[C@@H]1CCCN1C(=O)[C@@H](NC(=O)[C@H](Cc1ccccc1)NC(=O)[C@H](CS)NC(=O)[C@H](Cc1ccc(O)cc1)NC(=O)[C@@H](NC(=O)[C@@H]1CCCN1C(=O)CNC(=O)[C@H](CS)NC(=O)[C@@H](NC(=O)[C@H](CO)NC(=O)[C@H](CCCCN)NC(=O)[C@H](C)NC(=O)[C@@H]1CCCN1)C(C)C)C(C)C)[C@@H](C)O)C(C)C)C(=O)O [compound 17, PAKSVCGPVYCFTPSPVV] (H-PAKSVCGPVYCFTPSPVV-OH; N-terminus and C-terminus assumed)
Percent inhibition: 43.2% | Luciferase units [1]: 254,516 luciferase units (lumens)

CC[C@H](C)[C@H](NC(=O)[C@@H](NC(=O)[C@H](CS)NC(=O)[C@@H]1CCCN1)C(C)C)C(=O)NCC(=O)NCC(=O)N[C@H](C(=O)NCC(=O)N[C@@H](CC(N)=O)C(=O)N[C@@H](CC(N)=O)C(=O)N[C@H](C(=O)N[C@@H](CC(C)C)C(=O)N[C@@H](CC(C)C)C(=O)N[C@@H](CS)C(=O)N1CCC[C@H]1C(=O)N[C@H](C(=O)N[C@@H](CC(=O)O)C(=O)N[C@@H](CS)C(=O)O)[C@@H](C)O)[C@@H](C)O)C(C)C [compound 26, PCVIGGVGNNTLLCPTDC] (H-PCVIGGVGNNTLLCPTDC-OH; N-terminus and C-terminus assumed)
Percent inhibition: 51.6% | Luciferase units [1]: 216,706 luciferase units (lumens)

CC[C@H](C)[C@H](NC(=O)[C@@H](NC(=O)[C@H](CC(C)C)NC(=O)[C@H](CC(N)=O)NC(=O)[C@H](CCC(=O)O)NC(=O)[C@H](CC(C)C)NC(=O)[C@H](C)NC(=O)[C@H](C)NC(=O)[C@H](CCC(=O)O)NC(=O)[C@H](C)NC(=O)[C@H](CCC(N)=O)NC(=O)[C@H](CO)NC(=O)[C@@H](NC(=O)[C@H](CC(C)C)NC(=O)[C@H](CC(C)C)NC(=O)[C@H](CCSC)NC(=O)[C@H](CCSC)NC(=O)[C@@H](N)Cc1c[nH]c2ccccc12)[C@@H](C)CC)C(C)C)C(=O)O [compound 50, WMMLLISQAEAALENLVI]
Percent inhibition: 87.9% | Luciferase units [1]: 58,790 luciferase units (lumens)

CC[C@H](C)[C@H](NC(=O)[C@H](Cc1c[nH]cn1)NC(=O)[C@H](Cc1c[nH]c2ccccc12)NC(=O)[C@H](CO)NC(=O)CNC(=O)[C@H](CC(N)=O)NC(=O)[C@@H](NC(=O)[C@H](CC(N)=O)NC(=O)[C@@H](NC(=O)[C@H](CC(C)C)NC(=O)[C@H](CCC(N)=O)NC(=O)[C@@H](NC(=O)[C@H](CCCCN)NC(=O)[C@H](CCC(N)=O)NC(=O)[C@H](CO)NC(=O)[C@H](C)N)[C@@H](C)CC)C(C)C)[C@@H](C)O)C(=O)N[C@@H](CC(N)=O)C(=O)N[C@@H](CCCNC(=N)N)C(=O)O [compound 83, ASQKIQLVNTNGSWHINR]
Percent inhibition: −15.8% | Luciferase units [2]: 518,993 luciferase units (lumens)

CC[C@H](C)[C@H](NC(=O)[C@@H](N)Cc1c[nH]cn1)C(=O)N[C@@H](CC(N)=O)C(=O)N[C@@H](CCCNC(=N)N)C(=O)N[C@H](C(=O)N[C@@H](C)C(=O)N[C@@H](CC(C)C)C(=O)N[C@@H](CC(N)=O)C(=O)N[C@@H](CS)C(=O)N[C@@H](CC(N)=O)C(=O)N[C@@H](CC(=O)O)C(=O)N[C@@H](CO)C(=O)N[C@@H](CC(C)C)C(=O)N[C@@H](CCC(N)=O)C(=O)N[C@H](C(=O)NCC(=O)N[C@@H](Cc1ccccc1)C(=O)N[C@@H](Cc1ccccc1)C(=O)O)[C@@H](C)O)[C@@H](C)O [compound 84, HINRTALNCNDSLQTGFF]
Percent inhibition: 12.5% | Luciferase units [2]: 392,023 luciferase units (lumens)

CC(C)C[C@H](NC(=O)[C@H](C)NC(=O)[C@H](C)NC(=O)[C@H](Cc1ccccc1)NC(=O)[C@H](Cc1ccccc1)NC(=O)CNC(=O)[C@@H](NC(=O)[C@H](CCC(N)=O)NC(=O)[C@H](CC(C)C)NC(=O)[C@H](CO)NC(=O)[C@H](CC(=O)O)NC(=O)[C@H](CC(N)=O)NC(=O)[C@H](CS)NC(=O)[C@@H](N)CC(N)=O)[C@@H](C)O)C(=O)N[C@@H](Cc1ccccc1)C(=O)N[C@@H](Cc1ccc(O)cc1)C(=O)N[C@@H](C)C(=O)N[C@@H](Cc1c[nH]cn1)C(=O)O [compound 85, NCNDSLQTGFFAALFYAH]
Percent inhibition: 74.9% | Luciferase units [2]: 112,260 luciferase units (lumens)

CC(C)[C@H](NC(=O)CNC(=O)[C@H](CS)NC(=O)[C@@H]1CCCN1C(=O)[C@H](CCCNC(=N)N)NC(=O)[C@@H]1CCCN1)C(=O)N[C@H](C(=O)N1CCC[C@H]1C(=O)N[C@@H](C)C(=O)N[C@@H](CO)C(=O)N[C@@H](CCC(N)=O)C(=O)N[C@H](C(=O)N[C@@H](CS)C(=O)NCC(=O)N1CCC[C@H]1C(=O)N[C@H](C(=O)N[C@@H](Cc1ccc(O)cc1)C(=O)N[C@@H](CS)C(=O)O)C(C)C)C(C)C)C(C)C [compound 92, PRPCGVVPASQVCGPVYC] (H-PRPCGVVPASQVCGPVYC-OH; N-terminus and C-terminus assumed)
Percent inhibition: 16.9% | Luciferase units [2]: 372,400 luciferase units (lumens)

CSCC[C@H](NC(=O)[C@@H](NC(=O)[C@H](CC(=O)O)NC(=O)[C@@H](NC(=O)[C@@H](N)CCC(=O)O)[C@@H](C)O)C(C)C)C(=O)N[C@@H](CC(C)C)C(=O)N[C@@H](CC(C)C)C(=O)N[C@@H](CC(N)=O)C(=O)N[C@@H](CC(N)=O)C(=O)N[C@H](C(=O)N[C@@H](CCCNC(=N)N)C(=O)N1CCC[C@H]1C(=O)N1CCC[C@H]1C(=O)N[C@@H](CCC(N)=O)C(=O)NCC(=O)N[C@@H](CC(N)=O)C(=O)N[C@@H](Cc1c[nH]c2ccccc12)C(=O)N[C@@H](Cc1ccccc1)C(=O)O)[C@@H](C)O [compound 98, ETDVMLLNNTRPPQGNWF]
Percent inhibition: −4.4% | Luciferase units [2]: 467,636 luciferase units (lumens)

CSCC[C@H](NC(=O)[C@H](Cc1c[nH]c2ccccc12)NC(=O)[C@@H](NC(=O)[C@H](CS)NC(=O)CNC(=O)[C@H](Cc1ccccc1)NC(=O)[C@H](Cc1c[nH]c2ccccc12)NC(=O)[C@H](CC(N)=O)NC(=O)CNC(=O)[C@H](CCC(N)=O)NC(=O)[C@@H]1CCCN1C(=O)[C@@H]1CCCN1C(=O)[C@H](CCCNC(=N)N)NC(=O)[C@@H](NC(=O)[C@H](CC(N)=O)NC(=O)[C@@H](N)CC(N)=O)[C@@H](C)O)[C@@H](C)O)C(=O)N[C@@H](CC(N)=O)C(=O)N[C@@H](CO)C(=O)O [compound 99, NNTRPPQGNWFGCTWMNS]
Percent inhibition: 75.2% | Luciferase units [2]: 111,043 luciferase units (lumens)

CC[C@H](C)[C@H](NC(=O)[C@H](CC(N)=O)NC(=O)[C@H](CS)NC(=O)[C@@H]1CCCN1)C(=O)NCC(=O)NCC(=O)N[C@H](C(=O)NCC(=O)N[C@@H](CC(N)=O)C(=O)N[C@@H](CCCNC(=N)N)C(=O)N[C@H](C(=O)N[C@@H](CC(C)C)C(=O)N[C@H](C(=O)N[C@@H](CS)C(=O)N1CCC[C@H]1C(=O)N[C@H](C(=O)N[C@@H](CC(=O)O)C(=O)N[C@@H](CS)C(=O)O)[C@@H](C)O)[C@@H](C)CC)[C@@H](C)O)C(C)C [compound 102, PCNIGGVGNRTLICPTDC] (H-PCNIGGVGNRTLICPTDC-OH; N-terminus and C-terminus assumed)
Percent inhibition: 15.8% | Luciferase units [2]: 377,216 luciferase units (lumens)

CSCC[C@H](N)C(=O)N[C@@H](Cc1ccc(O)cc1)C(=O)N[C@H](C(=O)NCC(=O)NCC(=O)N[C@H](C(=O)N[C@@H](CCC(=O)O)C(=O)N[C@@H](Cc1c[nH]cn1)C(=O)N[C@@H](CCCNC(=N)N)C(=O)N[C@@H](CC(C)C)C(=O)N[C@@H](CC(N)=O)C(=O)N[C@@H](C)C(=O)N[C@@H](C)C(=O)N[C@@H](CS)C(=O)N[C@@H](CC(N)=O)C(=O)N[C@@H](Cc1c[nH]c2ccccc12)C(=O)N[C@H](C(=O)N[C@@H](CCCNC(=N)N)C(=O)O)[C@@H](C)O)C(C)C)C(C)C [compound 110, MYVGGVEHRLNAACNWTR]
Percent inhibition: −34.5% | Luciferase units [2]: 602,506 luciferase units (lumens)

CC(C)C[C@H](NC(=O)[C@H](CCC(=O)O)NC(=O)[C@H](CO)NC(=O)[C@H](CCCNC(=N)N)NC(=O)[C@H](CC(=O)O)NC(=O)[C@H](CCCNC(=N)N)NC(=O)[C@H](CC(=O)O)NC(=O)[C@H](CCC(=O)O)NC(=O)[C@H](CC(C)C)NC(=O)[C@H](CC(N)=O)NC(=O)[C@H](CS)NC(=O)[C@H](CCCNC(=N)N)NC(=O)[C@H](CCC(=O)O)NC(=O)CNC(=O)[C@H](CCCNC(=N)N)NC(=O)[C@@H](NC(=O)[C@H](Cc1c[nH]c2ccccc12)NC(=O)[C@@H](N)CC(N)=O)[C@@H](C)O)C(=O)O [compound 112, NWTRGERCNLEDRDRSEL]
Percent inhibition: −17.8% | Luciferase units [2]: 527,950 luciferase units (lumens)
